Experiments:
[1] = system: cleaved caspase-9 in BNL CL.2 cells; assay: Expression profile of cleaved caspase-9 (Western Blotting) after X-ray irradiation; format: cell-based, mouse; conditions: 5 and 30 μM, 2 h pretreatment, X-ray 15 Gy, 48 hours, normalized to β-actin
Source text: (§1) Four groups of BNL CL.2 cells (i.e., a normal control group referred to as Normal Control Group 1-A, an X-ray control group referred to as X-Ray Control Group 1-A, and two experimental groups referred to as Experimental Groups 1-A to 2-A), and six groups of NMuMG cells (i.e., a normal control group referred to as Normal Control Group 1-B, an X-ray control group referred to as X-Ray Control Group 1-B, two isorhamnetin groups referred to as Isorhamnetin Groups 1 to 2, and two experimental groups referred to as Experimental Groups 1-B to 2-B), were prepared based on the procedure set forth in “Source and cultivation of cell lines” of “Experimental materials”. BNL CL.2 cells in each group were cultivated using 5 mL of a corresponding medium shown in Table 1 and a 6-cm Petri dish in an amount of 2×10^5 cells per dish. […]
(§2) Subsequently, the culture in each group was cultivated in an incubator (37° C., 5% CO2) for 48 hours, and 120 μL of lysis buffer containing CelLytic™ M protein extraction reagent (Sigma-Aldrich) and proteinase inhibitor cocktail (Sigma-Aldrich) was added to the culture in each group, followed by mixing evenly. […] Protein concentration in the total protein sample was determined by means of the Bio-Rad Protein Assay Kit. […]
(§3) Subsequently, ImageScanner Imaging Software was used for analysis, such that the corresponding protein expression level was semi-quantitatively calculated. […]

[2] = system: cleaved caspase-9 in NMuMG cells; assay: as above; format: cell-based, mouse; conditions: 15 and 30 μM, 2 h pretreatment, X-ray 15 Gy, 48 hours, normalized to β-actin
Source text: as §1, §2, §3

COc1cc(-c2oc3cc(O)cc(O)c3c(=O)c2O[C@@H]2O[C@H](CO)[C@@H](O)[C@H](O)[C@H]2O)ccc1O [isorhamnetin-3-O-β-D-glucoside]
expression level of cleaved caspase-9 versus X-ray control group [1]: significant reduction in expression level of cleaved caspase-9
expression level of cleaved caspase-9 versus X-ray control group [2]: significant reduction in expression level of cleaved caspase-9

From patent US9821002B2, “Method for alleviating radiation injury with isorhamnetin-3-O-β-D-glucoside” (Sinotai Oncology Associate., Ltd., priority 2015, dated 2017)
